Results taken from patent publication US20250388589A1, “TRICYCLIC HETEROCYCLIC DERIVATIVES, COMPOSITIONS AND USES THEREOF” (Danatlas Pharmaceuticals Co., Ltd., priority 2022, published 2025).
pIC50: −log10 of the molar value.

Columns and labels:
[1] = target: hPARG (C-terminal His6-tag) (Homo sapiens (Human), UniProt Q86W56); assay: PARG Enzymatic Activity Assay (HTRF); format: biochemical; details: hPARG 65 pM final, biotinylated-NAD ribosylated PARP1 8 nM final
Outline: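 Readout is time-resolved fluorescence at 620 and 665 nm after 60 min RT detection with streptavidin-Eu cryptate and anti-6HIS-XL665; IC50 by 4-parameter fit, 1% DMSO and no-enzyme controls. Reaction: 8 nM final ribosylated PARP1 substrate for 10 min RT, following 60 min RT enzyme (65 pM)–compound preincubation in Tris pH 7.4 buffer with EDTA, DTT, KCl.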

[2] = test system: Kuramochi cell line; assay: Cell Viability Assay (Cell Titer-Glo, 7 days); format: cell-based; details: 168 h, Kuramochi cells, 7 days incubation, read-out: PARG Cell viability (IC50)
Outline: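 IC50 from a four-parameter fit of CellTiter-Glo luminescence, scaled between DMSO-treated (high) and medium-only (low) wells. Kuramochi cells (400/well, RPMI/10% FBS) exposed 7 days at 37 °C to 9 concentrations, 3-fold steps, in duplicate.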

Sequence of hPARG (C-terminal His6-tag) (Q86W56 whole entry): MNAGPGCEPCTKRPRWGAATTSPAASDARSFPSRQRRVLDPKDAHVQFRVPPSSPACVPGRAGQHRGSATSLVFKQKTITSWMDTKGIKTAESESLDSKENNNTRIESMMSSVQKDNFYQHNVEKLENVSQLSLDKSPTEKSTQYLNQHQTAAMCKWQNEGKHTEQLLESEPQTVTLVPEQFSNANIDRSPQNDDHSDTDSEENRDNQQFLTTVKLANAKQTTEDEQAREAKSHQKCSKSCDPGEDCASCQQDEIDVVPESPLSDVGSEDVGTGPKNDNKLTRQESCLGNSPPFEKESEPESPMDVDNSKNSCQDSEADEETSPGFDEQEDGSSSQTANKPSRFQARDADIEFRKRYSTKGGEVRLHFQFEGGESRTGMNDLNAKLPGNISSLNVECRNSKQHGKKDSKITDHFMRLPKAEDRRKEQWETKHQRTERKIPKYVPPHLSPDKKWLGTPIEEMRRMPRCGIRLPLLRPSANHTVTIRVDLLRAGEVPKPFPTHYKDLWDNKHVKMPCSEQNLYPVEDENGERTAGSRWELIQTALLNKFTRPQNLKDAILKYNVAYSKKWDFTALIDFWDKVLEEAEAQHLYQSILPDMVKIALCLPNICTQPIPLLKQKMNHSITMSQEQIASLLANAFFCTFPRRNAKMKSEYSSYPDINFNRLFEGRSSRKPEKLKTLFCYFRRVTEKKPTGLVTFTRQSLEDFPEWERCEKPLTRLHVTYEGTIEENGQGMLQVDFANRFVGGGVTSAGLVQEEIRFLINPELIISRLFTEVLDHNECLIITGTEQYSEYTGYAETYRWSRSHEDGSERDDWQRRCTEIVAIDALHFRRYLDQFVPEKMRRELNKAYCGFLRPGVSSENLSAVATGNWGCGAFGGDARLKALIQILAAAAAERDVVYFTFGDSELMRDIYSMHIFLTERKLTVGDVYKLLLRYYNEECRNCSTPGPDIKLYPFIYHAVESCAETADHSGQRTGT

Structure (SMILES) | pIC50 [1] | pIC50 [2]
COC(C)(C)C(=O)N1CCC(c2ncnc3c2c2ccc(S(=O)(=O)NC4(C#N)CC4)cc2n3-c2nnc(C(F)F)s2)CC1 [Example 119, N-(1-cyanocyclopropyl)-9-(5-(difluoromethyl)-1,3,4-thiadiazol-2-yl)-4-(1-(2-methoxy-2-methylpropanoyl)piperidin-4-yl)-9H-pyrimido[4,5-b]indole-7-sulfonamide] | > 7.00 | > 7.00
CN(C)C1CCN(c2ncnc3c2c2ccc(S(=O)(=O)NC4(C#N)CC4)cc2n3-c2nnc(C(F)F)s2)C[C@@H]1F (stereo partly drawn) [Example 175, N-(1-cyanocyclopropyl)-9-(5-(difluoromethyl)-1,3,4-thiadiazol-2-yl)-4-((3S)-4-(dimethylamino)-3-fluoropiperidin-1-yl)-9H-pyrimido[4,5-b]indole-7-sulfonamide] | > 7.00 | > 7.00
CN(CCO)C(=O)N1CCC(c2ncnc3c2c2ccc(S(=O)(=O)NC4(C#N)CC4)cc2n3-c2nnc(C(F)F)s2)CC1 [Example 143, 4-(7-(N-(1-cyanocyclo-propyl)sulfamoyl)-9-(5-(difluoromethyl)-1,3,4-thiadiazol-2-yl)-9H-pyrimido[4,5-b]indol-4-yl)-N-(2-hydroxyethyl)-N-methylpiperidine-1-carboxamide] | > 7.00 | 6.00 to 7.00
CC1(C(=O)N2CCN(c3ncnc4c3c3ccc(S(=O)(=O)NC5(C#N)CC5)cc3n4-c3nnc(C(F)F)s3)CC2)CC1 [Example 10, N-(1-Cyanocyclopropyl)-9-(5-(difluoromethyl)-1,3,4-thiadiazol-2-yl)-4-(4-(1-methylcyclopropane-1-carbonyl)piperazin-1-yl)-9H-pyrimido[4,5-b]indole-7-sulfonamide] | > 7.00 | > 7.00
N#CC1(NS(=O)(=O)c2ccc3c4c(N5CCN6CCC[C@H]6C5)ncnc4n(-c4nnc(C(F)F)s4)c3c2)CC1 [Example 160, (S)—N-(1-Cyanocyclopropyl)-9-(5-(difluoromethyl)-1,3,4-thiadiazol-2-yl)-4-(hexahydropyrrolo[1,2-a]pyrazin-2(1H)-yl)-9H-pyrimido[4,5-b]indole-7-sulfonamide] | > 7.00 | > 7.00
CO[C@H]1CCN(c2ncnc3c2c2ccc(S(=O)(=O)NC4(C#N)CC4)cc2n3-c2nnc(C(F)F)s2)C[C@@H]1F [Example 172, N-(1-cyanocyclopropyl)-9-(5-(difluoromethyl)-1,3,4-thiadiazol-2-yl)-4-((3S,4S)-3-fluoro-4-methoxypiperidin-1-yl)-9H-pyrimido[4,5-b]indole-7-sulfonamide] | > 7.00 | > 7.00
C[C@H]1CN(c2ncnc3c2c2cc(F)c(S(=O)(=O)NC4(C)CC4)cc2n3-c2nnc(C(F)F)s2)CCN1C(=O)N(C)C [Example 102, (S)-4-(9-(5-(Difluoromethyl)-1,3,4-thiadiazol-2-yl)-6-fluoro-7-(N-(1-methylcyclopropyl)sulfamoyl)-9H-pyrimido[4,5-b]indol-4-yl)-N,N,2-trimethylpiperazine-1-carboxamide] | > 7.00 | > 7.00
CO[C@H](C)C(=O)N1CCC(c2ncnc3c2c2ccc(S(=O)(=O)NC4(C)CC4)cc2n3-c2nnc(C(F)F)s2)CC1 [Example 95, (R)-9-(5-(Difluoromethyl)-1,3,4-thiadiazol-2-yl)-4-(1-(2-methoxypropanoyl)piperidin-4-yl)-N-(1-methylcyclopropyl)-9H-pyrimido[4,5-b]indole-7-sulfonamide] | > 7.00 | > 7.00
CC(C)C(=O)N1C2CCC1CN(c1ncnc3c1c1ccc(S(=O)(=O)NC4(C#N)CC4)cc1n3-c1nnc(C(F)F)s1)C2 [Example 24, N-(1-Cyanocyclopropyl)-9-[5-(difluoromethyl)-1,3,4-thiadiazol-2-yl]-4-[8-(2-methylpropanoyl)-3,8-diazabicyclo[3.2.1]octan-3-yl]pyrimido[4,5-b]indole-7-sulfonamide] | > 7.00 | 6.00 to 7.00
N#CC1(NS(=O)(=O)c2ccc3c4c(N5CC6OCCOC6C5)ncnc4n(-c4nnc(C(F)F)s4)c3c2)CC1 (stereo not shown) [Example 165, N-(1-Cyanocyclopropyl)-9-(5-(difluoromethyl)-1,3,4-thiadiazol-2-yl)-4-(hexahydro-6H-[1,4]dioxino[2,3-c]pyrrol-6-yl)-9H-pyrimido[4,5-b]indole-7-sulfonamide] | 6.00 to 7.00 | 6.00 to 7.00
N#CC1(NS(=O)(=O)c2ccc3c4c(N5CCC(F)CC5)ncnc4n(-c4nnc(C(F)F)s4)c3c2)CC1 [Example 51, N-(1-Cyanocyclopropyl)-9-(5-(difluoromethyl)-1,3,4-thiadiazol-2-yl)-4-(4-fluoropiperidin-1-yl)-9H-pyrimido[4,5-b]indole-7-sulfonamide] | > 7.00 | 6.00 to 7.00
CC(C)C(=O)N1[C@H](C)CN(c2ncnc3c2c2ccc(S(=O)(=O)NC4(C)CC4)cc2n3-c2nnc(C(F)F)s2)C[C@@H]1C [Example 190, 9-(5-(Difluoromethyl)-1,3,4-thiadiazol-2-yl)-4-((3R,5S)-4-isobutyryl-3,5-dimethylpiperazin-1-yl)-N-(1-methylcyclopropyl)-9H-pyrimido[4,5-b]indole-7-sulfonamide] | > 7.00 | > 7.00
N#CC1(NS(=O)(=O)c2ccc3c4c(C5CCN(C(=O)[C@H]6CCCO6)CC5)ncnc4n(-c4nnc(C(F)F)s4)c3c2)CC1 [Example 110, (R)-N-(1-cyanocyclopropyl)-9-(5-(difluoromethyl)-1,3,4-thiadiazol-2-yl)-4-(1-(tetrahydrofuran-2-carbonyl)piperidin-4-yl)-9H-pyrimido[4,5-b]indole-7-sulfonamide] | > 7.00 | > 7.00
N#CC1CCN(c2ncnc3c2c2ccc(S(=O)(=O)NC4(C#N)CC4)cc2n3-c2nnc(C(F)F)s2)CC1 [Example 49, N-(1-Cyanocyclopropyl)-4-(4-cyanopiperidin-1-yl)-9-(5-(difluoromethyl)-1,3,4-thiadiazol-2-yl)-9H-pyrimido[4,5-b]indole-7-sulfonamide] | > 7.00 | > 7.00
N#CC1(NS(=O)(=O)c2ccc3c4c(C5CCN(C(=O)[C@H]6CCOC6)CC5)ncnc4n(-c4nnc(C(F)F)s4)c3c2)CC1 [Example 115, (S)-N-(1-cyanocyclopropyl)-9-(5-(difluoromethyl)-1,3,4-thiadiazol-2-yl)-4-(1-(tetrahydrofuran-3-carbonyl)piperidin-4-yl)-9H-pyrimido[4,5-b]indole-7-sulfonamide] | > 7.00 | > 7.00
N#CC1(NS(=O)(=O)c2ccc3c4c(C5CCOCC5)ncnc4n(-c4nnc(C(F)F)s4)c3c2)CC1 [Example 79, N-(1-Cyanocyclopropyl)-9-(5-(difluoromethyl)-1,3,4-thiadiazol-2-yl)-4-(tetrahydro-2H-pyran-4-yl)-9H-pyrimido[4,5-b]indole-7-sulfonamide] | > 7.00 | > 7.00
C[C@H]1CC(c2ncnc3c2c2ccc(S(=O)(=O)NC4(C#N)CC4)cc2n3-c2nnc(C(F)F)s2)CCN1 (stereo partly drawn) [Example 150, N-(1-Cyanocyclopropyl)-9-(5-(difluoromethyl)-1,3,4-thiadiazol-2-yl)-4-((2S)-2-methylpiperidin-4-yl)-9H-pyrimido[4,5-b]indole-7-sulfonamide] | > 7.00 | 6.00 to 7.00
